Reference: patent US20230372263A1, “METHODS AND COMPOSITIONS FOR TREATING AMYOTROPHIC LATERAL SCLEROSIS” (Amylyx Pharmaceuticals, Inc., priority 2022, published 2023)

Assay: Phase II AMX3500 (CENTAUR) sparse sampling: steady-state plasma concentrations of TURSO/TUDCA, UDCA, GUDCA in ALS patients
Assay type: in vivo, human
Conditions: patients; comparison across studies
Protocol: • 1. […] Treatment is administered as one sachet daily for the initial 3 weeks and then increased if tolerated to one sachet twice daily. […] Sampling times are randomly assigned to occur at either 1 or 4 hours post-dose at the 12 week visit and the other time at the 24 week visit. • Treatment duration: 24 weeks • 2.
• Protocol AMX3500: sparse sampling in 87 subjects with ALS. Approximately 2 samples are collected for each subject, 1 or 4 hours post dose following 12 and 24 weeks of treatment. • Protocol A35-002: rich sampling in 14 healthy adults. Approximately 21 samples are collected over 24 hours for each subject on two occasions, once following a high fat meal and the other under fasting conditions.
Subjects were advised to take the drug before a meal. […] Referred to as protocol 3500.
A study was carried out to examine plasma concentration data in various subgroups for the protocol AMX3500 Phase 2 study. This example summarizes plasma concentrations of TUDCA and 2 metabolites, also related acids, UDCA, the de-conjugated TUDCA metabolite, and GUDCA, the glycine conjugate of UDCA.
For each of the 2 treatment arms (treatment and placebo), subjects were further divided into 2 sample sequence groups for schedule of pharmacokinetic measurements: • 1. 1 hour post-dose for the Week 12 visit and 4 hours post-dose for the Week 24 visit • 2. 4 hours post-dose for the Week 12 visit and 1 hour post-dose for the Week 24 visit
Twenty-four distinct medication descriptions were identified as containing antibiotics. Dates of antibiotic use were compared to dates of visits and if the antibiotic use date range contained the visit date, then that visit was flagged for that subject's data for antibiotic use. […] These antibiotics could hypothetically be in a subject's body still if this event occurred. However, it was observed that only a small number of subjects took antibiotics near to visit dates but not overlapping visit dates. In other cases, subjects were taking antibiotics on the date of one visit but not the others. Some subjects are therefore in both categories of antibiotic use and nonuse, though no individual visits for a subject are counted in both categories at the same time.
Subjects whose race were recorded as “Black” or “African American” were evaluated according to the standard Glomerular Filtration Rate (eGFR) rating for that race. The other standard eGFR rating used, sometimes referred to as a standard for people who are White, was applied to subjects of all other races. These rates were analyzed as continuous in mL/min/1.73 m2 units and as the following categories: • 1. Less than 90 mL/min/1.73 m^2 • 2. Equal to or greater than 90 mL/min/1.73 m^2
Age was converted from a continuous variable to 2 categories: • 1. As old or older than 65 years old • 2. Younger than 65 years old
All boxplots boxes are bounded at the 25th and 75th percentile, with whiskers at 10th and 90th percentiles, outliers beyond that as points, the black line as median, and red line as mean.

SMILES: O=C(O)Cc1ccccc1 [PAA, phenylacetate]
- accumulation in plasma after once- or twice-daily dosing: no accumulation
